Where two headings read alike, the source gives them in different places.
What was measured:
Type in all cases: biochemical
Aβ 1-42 fibrils [1] = target: T1, Aβ 1-42 fibrils (Homo sapiens, UniProt P05067); test: Thioflavin T fluorometry - disruption of pre-formed Aβ 1-42 Alzheimer's fibrils; settings: 25 μM pre-fibrillized Aβ 1-42, 37° C., 3 days, read-out: % Inhibition Aβ (result ± S.D.)
T1 construct: purchased Bachem Inc
Text: In one study, Thioflavin T fluorometry was used to determine the effects of the compounds, and of EDTA (as a negative control). In this assay Thioflavin T binds specifically to fibrillar amyloid, and this binding produces a fluorescence enhancement at 485 nm that is directly proportional to the amount of amyloid fibrils formed. The higher the fluorescence, the greater the amount of amyloid fibrils formed (Naki et al., Lab. Invest. 65:104-110, 1991; Levine III, Protein Sci. 2:404-410, 1993; Amyloid: Int. J. Exp. Clin. Invest. 2:1-6, 1995).
(§1) In this study, 25 μM of pre-fibrillized Aβ 1-42 (Bachem Inc) was incubated at 37° C. for 3 days either alone, or in the presence of one of the compounds or EDTA (at Aβ:test compound weight ratios of 1:1, 1:0.1, 1:0.01 or 1:0.001). Following 3-days of co-incubation, 50 μl of each incubation mixture was transferred into a 96-well microtiter plate containing 150 μl of distilled water and 50 μl of a Thioflavin T solution (i.e. 500 mM Thioflavin T in 250 mM phosphate buffer, pH 6.8). The fluorescence was read at 485 nm (444 nm excitation wavelength) using an ELISA plate fluorometer after subtraction with buffer alone or compound alone, as blank.

IAPP fibrils [2] = target: T2, IAPP fibrils (Homo sapiens, UniProt P10997); test: Congo red binding assay with IAPP fibrils; settings: 3-day incubation
T2 construct: purchased Bachem Inc
T2 sequence (P10997 34-70 limits assumed): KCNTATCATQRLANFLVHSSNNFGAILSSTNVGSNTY
Experimental: (§2) In the Congo red binding assay the ability of a given test compound to alter amyloid (in this case, IAPP) binding to Congo red is quantified. In this assay, IAPP and test compounds were incubated for 3 days and then vacuum filtered through a 0.2 μm filter. The amount of IAPP retained in the filter was then quantitated following staining of the filter with Congo red. After appropriate washing of the filter, any lowering of the Congo red color on the filter in the presence of the test compound (compared to the Congo red staining of the amyloid protein in the absence of the test compound) was indicative of the test compound's ability to diminish/alter the amount of aggregated and congophilic IAPP.
In the study, the ability of IAPP fibrils to bind Congo red in the absence or presence of increasing amounts of the compounds or EDTA (at IAPP:test compound weight ratios of 1:1, 1:0.1, 1:0.01 or 1:0.001) was determined.

Aβ 1-42 fibrils [3] = target: T1, Aβ 1-42 fibrils; test: Circular dichroism spectroscopy of Aβ 1-42 fibrils; settings: 3 days co-incubation, 25 μM Aβ 1-42 (FIG. 1, FIG. 2)
Experimental: Circular dichroism (CD) spectroscopy is a method that can be used to determine the effects of test compounds to disrupt the secondary structure conformation of amyloid fibrils. In one study, as described in this example, circular dichroism spectroscopy was used to determine the effects of different compounds of the invention on β-sheet conformation of Aβ 1-42 fibrils. For this study, Aβ 1-42 (Bachem Inc., Torrance, Calif.) was first dissolved in a 2 mM NaOH solution, maintaining the pH of these solutions above 10. […] Aβ 1-42 was then incubated at 37° C. in the absence or presence of different compounds at an Aβ:test compound wt/wt ratios of 1:0.1, 1:1 and 1:10. After 3 days of incubation, CD spectra were recorded on a Jasco 810 spectropolarimeter (Easton, Md.). All CD spectra were collected with 0.05 cm quartz cells. Wavelength traces were scanned from 190-260 nm at 0.5 nm increments with a bandwidth of 5 nm, at a scan speed of 10 nm/minute, a response time of 32 seconds, and a data pitch of 0.5 nm. The whole system was equilibrated and continuously flushed with nitrogen at 10 ml/minute. […] Ellipticity in degrees was converted to MRE ([Q]; molar residue ellipticity) using the formula [Q]=100•[…]; where Q is the ellipticity in degrees; […]

IAPP fibrils [4] = target: T2, IAPP fibrils; test: Thioflavin T fluorometry - disruption of type 2 diabetes IAPP fibrils; settings: 25 μM pre-fibrillized IAPP, 37° C., 3 days, read-out: % Inhibition IAPP (result ± S.D.)
Experimental: In this assay Thioflavin T binds specifically to fibrillar amyloid, and this binding produces a fluorescence enhancement at 485 nm that is directly proportional to the amount of IAPP fibrils present. The higher the fluorescence, the greater the amount of IAPP fibrils present (Naki et al, Lab. Invest. 65:104-110, 1991; Levine III, Protein Sci. 2:404-410, 1993; Amyloid: Int. J. Exp. Clin. Invest. 2:1-6, 1995).
as §1, with “IAPP” for “Aβ 1-42”, “IAPP:test” for “Aβ:test”

Aβ 1-42 fibrils [5] = target: T1, Aβ 1-42 fibrils; test: Congo red binding assay with Aβ 1-42 fibrils; settings: 3-day incubation
Experimental: as §2, with “a” for “a given”, “Aβ)” for “IAPP)”, “Aβ 1-42” for “IAPP”, “Aβ.” for “IAPP.”
In one study, the ability of Aβ fibrils to bind Congo red in the absence or presence of increasing amounts of the compounds or EDTA (at Aβ:test compound weight ratios of 1:1, 1:0.1, 1:0.01 or 1:0.001) was determined.

monomeric Aβ 1-42 = target: T3, monomeric Aβ 1-42 (Homo sapiens, UniProt P05067); test: SDS-PAGE/Western blot of Aβ 1-42 after incubation with compounds; settings: 25 μM pre-fibrillized Aβ 1-42, 37° C., 3 days, 0.2 μm filtrate, antibody 6E10
T3 construct: purchased Bachem Inc
T3 sequence (P05067 672-713): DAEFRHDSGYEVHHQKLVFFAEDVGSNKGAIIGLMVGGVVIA
Experimental: In this latter study, triplicate samples of pre-fibrillized Aβ 1-42 (25 μM) was incubated at 37° C. for 3 days, alone or in the presence of the compounds or EDTA. Five micrograms of each sample was then filtered through a 0.2 μm filter. Protein recovered from the filtrate was then loaded, and ran on a 10-20% Tris-Tricine SDS-PAGE, blotted to nitrocellulose and detected using an Aβ-antibody (clone 6E10; Senetek).

[6] = Aβ:test compound wt/wt ratio 1:0.1
[7] = Aβ:test compound wt/wt ratio 1:1
[8] = IAPP:test compound wt/wt ratio 1:0.001
[9] = IAPP:test compound wt/wt ratio 1:0.1
[10] = IAPP:test compound wt/wt ratio 1:1

T1 sequence (P05067 672-713): as above

Oc1ccc(CCc2ccc(O)c(O)c2)cc1O [Compound 4, 1,2-bis(3,4-dihydroxyphenyl)ethane]
inhibition (Aβ 1-42 fibrils [1]; Aβ:test compound wt/wt ratio 1:0.001): 26.8 ± 4.8%
inhibition (Aβ 1-42 fibrils [1]; [6]): 97.4 ± 0.4%
inhibition (Aβ 1-42 fibrils [1]; [7]): 98.5 ± 0.77%
% Inhibition IAPP (result ± S.D.), Congo red binding (IAPP fibrils [2]; [8]): 0.0 ± 1.05%
% Inhibition IAPP (result ± S.D.), Congo red binding (IAPP fibrils [2]; [9]): 25.4 ± 4.68%
% Inhibition IAPP (result ± S.D.), Congo red binding (IAPP fibrils [2]; [10]): 68.9±1.22%
disruption of β-sheet structure in Aβ 1-42 fibrils (CD minima at 218 nm) (Aβ 1-42 fibrils [3]): marked disruption of β-sheet structure
inhibition (IAPP fibrils [4]; [8]): 17.3 ± 4.07%
inhibition (IAPP fibrils [4]; IAPP:test compound wt/wt ratio 1:0.01): 63.2 ± 2.09%
inhibition (IAPP fibrils [4]; [9]): 96 ± 1%
inhibition (IAPP fibrils [4]; [10]): 99.7 ± 0.23%
% Inhibition Aβ (result ± S.D.), Congo red binding (Aβ 1-42 fibrils [5]; Aβ:test compound wt/wt ratio 1:0.01): 16.4 ± 2.02%
% Inhibition Aβ (result ± S.D.), Congo red binding (Aβ 1-42 fibrils [5]; [6]): 46.8 ± 1.28%
% Inhibition Aβ (result ± S.D.), Congo red binding (Aβ 1-42 fibrils [5]; [7]): 73.0 ± 0.90%
detection of Aβ 1-42 monomers (~4 kilodalton band) on Western blot (monomeric Aβ 1-42): not detected
